Reference: patent publication US11814367B2, “Inhibitors of glycogen synthase 1 (GYS1) and methods of use thereof” (Maze Therapeutics, Inc., priority 2021, dated 2023)

Legend:
[1] = target: hGYS1 enzyme (recombinant hGYS1/GN1 protein) (Homo sapiens (Human), UniProt P13807); experiment: GYS1 coupled enzyme assay (PK/LDH); format: biochemical; conditions: hGYS1/GN1 50 nM, UDP-Glucose 0.8 mM, G6P 1 mM; geometric mean of at least 2 runs
[2] = target: hGYS2 enzyme (recombinant hGYS2/GN1 protein) (Homo sapiens (Human), UniProt P54840); experiment: GYS2 coupled enzyme assay (PK/LDH); format: biochemical; conditions: geometric mean of at least 2 assay runs on separate days, read-out: Avg_IC50
hGYS2 enzyme (recombinant hGYS2/GN1 protein), sequence (P54840 whole entry): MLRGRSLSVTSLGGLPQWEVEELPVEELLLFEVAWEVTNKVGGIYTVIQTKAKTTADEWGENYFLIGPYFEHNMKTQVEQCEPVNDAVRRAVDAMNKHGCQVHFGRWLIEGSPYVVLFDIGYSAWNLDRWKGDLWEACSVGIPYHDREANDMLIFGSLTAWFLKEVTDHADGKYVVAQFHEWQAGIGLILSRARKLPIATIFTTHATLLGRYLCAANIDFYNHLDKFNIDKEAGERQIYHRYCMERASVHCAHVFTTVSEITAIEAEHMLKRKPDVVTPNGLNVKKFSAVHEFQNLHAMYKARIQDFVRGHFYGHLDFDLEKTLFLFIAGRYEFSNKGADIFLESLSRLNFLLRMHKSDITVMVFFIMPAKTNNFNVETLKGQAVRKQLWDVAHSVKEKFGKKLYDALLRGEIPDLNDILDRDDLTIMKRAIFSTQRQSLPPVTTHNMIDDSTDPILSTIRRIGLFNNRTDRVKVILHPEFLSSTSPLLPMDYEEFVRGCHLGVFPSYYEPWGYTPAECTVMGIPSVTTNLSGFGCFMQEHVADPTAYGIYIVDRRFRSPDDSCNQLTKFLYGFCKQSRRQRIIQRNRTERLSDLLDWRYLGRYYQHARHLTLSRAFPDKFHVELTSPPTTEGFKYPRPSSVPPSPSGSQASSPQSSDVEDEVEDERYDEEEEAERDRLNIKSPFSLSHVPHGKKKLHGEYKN
hGYS2 enzyme (recombinant hGYS2/GN1 protein), sequence (P46976 whole entry partner): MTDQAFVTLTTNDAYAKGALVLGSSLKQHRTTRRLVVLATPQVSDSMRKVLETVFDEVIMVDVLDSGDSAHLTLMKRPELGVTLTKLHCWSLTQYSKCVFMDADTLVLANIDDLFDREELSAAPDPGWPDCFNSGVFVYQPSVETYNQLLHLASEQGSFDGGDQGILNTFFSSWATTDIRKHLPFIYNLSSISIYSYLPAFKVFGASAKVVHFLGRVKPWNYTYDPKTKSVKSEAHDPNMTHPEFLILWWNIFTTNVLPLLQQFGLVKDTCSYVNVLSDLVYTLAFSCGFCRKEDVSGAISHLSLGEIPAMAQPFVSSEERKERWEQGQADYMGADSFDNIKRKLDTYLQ
Outline: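 hGYS2/GN1 200 nM; UDP-Glc 2 mM; glycogen 0.2%; G6P 2 mM; PEP 2 mM, NADH 0.6 mM, PK/LDH 20 U/mL. 50 mM Tris pH 7.5, MgCl2, KCl, BSA, TCEP, 2.5% DMSO. Kinetic A340, 10 min. IC50 = geomean of ≥2 runs.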

[3] = system: hGYS1 enzyme / glycogen synthesis in HeLa cells; experiment: GYS1 cell based assay (glycogen synthesis, Glucose-glo); design: species or system human; conditions: Homo sapiens, HeLa, 24 h, 24 h incubation, 20 mM glucose, geometric mean of at least 2 runs
Outline: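 HeLa cells starved 24 h in medium containing only 1× Glutamax were plated onto compound in medium with 20 mM glucose (1% DMSO final) for 24 h, 37 °C, 5% CO2. Acid lysates were Tris-quenched, glucoamylase-digested (pH 5.3, 1 h, 37 °C) and read by Glucose-glo luminescence. IC50 came from Hill fits, as geometric mean of ≥2 runs.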

hGYS1 enzyme (recombinant hGYS1/GN1 protein), sequence (P13807 whole entry): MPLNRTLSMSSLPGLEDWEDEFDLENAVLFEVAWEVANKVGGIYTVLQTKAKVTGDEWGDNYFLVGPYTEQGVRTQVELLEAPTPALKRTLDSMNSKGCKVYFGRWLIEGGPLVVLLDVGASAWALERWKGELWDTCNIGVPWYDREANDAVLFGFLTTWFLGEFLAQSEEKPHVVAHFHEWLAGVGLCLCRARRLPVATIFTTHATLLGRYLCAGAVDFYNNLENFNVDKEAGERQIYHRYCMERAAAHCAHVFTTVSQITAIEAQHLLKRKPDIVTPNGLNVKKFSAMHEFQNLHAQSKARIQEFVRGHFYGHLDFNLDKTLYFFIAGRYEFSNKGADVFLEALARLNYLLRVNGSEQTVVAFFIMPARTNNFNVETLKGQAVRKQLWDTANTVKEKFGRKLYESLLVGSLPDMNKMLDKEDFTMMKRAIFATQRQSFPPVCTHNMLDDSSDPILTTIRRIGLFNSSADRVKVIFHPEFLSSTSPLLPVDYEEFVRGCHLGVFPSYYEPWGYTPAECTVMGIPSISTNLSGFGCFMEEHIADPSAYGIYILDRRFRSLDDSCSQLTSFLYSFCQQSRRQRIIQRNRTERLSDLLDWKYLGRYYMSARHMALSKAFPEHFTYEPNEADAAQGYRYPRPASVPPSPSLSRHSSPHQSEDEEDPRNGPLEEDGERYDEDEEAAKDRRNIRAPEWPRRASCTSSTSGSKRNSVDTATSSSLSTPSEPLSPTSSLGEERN
hGYS1 enzyme (recombinant hGYS1/GN1 protein), sequence (P46976 whole entry partner): as the sequence (P46976 whole entry partner) above

Structure (SMILES) | IC50 [1] [nM] | IC50 [2] [nM] | IC50 [3] [nM]
O=C(N[C@@H](c1ccccc1)c1ccc(C2CC2)c(F)c1)[C@@H]1C[C@@H](F)CN1C(=O)CNC(=O)N1CC(F)(F)C1 [Compound 495, (2S,4R)-N-[(S)-(4-cyclopropyl-3-fluorophenyl)(phenyl)methyl]-1-{2-[(3,3-difluoroazetidine-1-carbonyl)amino]acetyl}-4-fluoropyrrolidine-2-carboxamide] | 66 | > 100000 | 1500
O=C(N[C@@H](c1ccccc1)c1ccc(C2CC2)c(F)c1)[C@@H]1C[C@@H](F)CN1C(=O)CNC(=O)N1CC(C(F)(F)F)C1 [Compound 496, (2S,4R)-N-[(S)-(4-cyclopropyl-3-fluorophenyl)(phenyl)methyl]-4-fluoro-1-(2-{[3-(trifluoromethyl)azetidine-1-carbonyl]amino}acetyl) pyrrolidine-2-carboxamide] | 86 | > 100000 | 1820
CCn1c(=O)c(C)cn(CC(=O)N2C[C@H](F)C[C@H]2C(=O)N[C@@H](c2ccccc2)c2ccc(C3CC(F)(F)C3)c(F)n2)c1=O [Compound 501, (2S,4R)—N—((S)-(5-(3,3-difluorocyclobutyl)-6-fluoropyridin-2-yl)(phenyl)methyl)-1-(2-(3-ethyl-5-methyl-2,4-dioxo-3,4-dihydropyrimidin-1(2H)-yl)acetyl)-4-fluoropyrrolidine-2-carboxamide] | 3 | > 100000 | 50
O=C(N[C@@H](c1ccccc1)c1ccc(C2CC(F)(F)C2)c(F)n1)[C@@H]1C[C@@H](F)CN1C(=O)Cn1cnc2ccccc21 [Compound 504, (2S,4R)-1-[2-(1H-1,3-benzodiazol-1-yl)acetyl]-N-[(S)-[5-(3,3-difluorocyclobutyl)-6-fluoropyridin-2-yl](phenyl)methyl]-4-fluoropyrrolidine-2-carboxamide] | 3 | > 100000 | 60
O=C(N[C@@H](c1ccccc1)c1ccc(C2CC(F)(F)C2)c(F)n1)[C@@H]1C[C@@H](F)CN1C(=O)Cc1[nH]nnc1C(F)(F)F [Compound 510, (2S,4R)-N-[(S)-[5-(3,3-difluorocyclobutyl)-6-fluoropyridin-2-yl](phenyl)methyl]-4-fluoro-1-{2-[4-(trifluoromethyl)-1H-1,2,3-triazol-5-yl]acetyl} pyrrolidine-2-carboxamide] | 9 | > 100000 | 230
O=C(N[C@@H](c1ccccc1)c1ccc(C2CC(F)(F)C2)c(F)n1)[C@@H]1C[C@@H](F)CN1C(=O)Cn1nnnc1C(F)F [Compound 513, (2S,4R)-N-[(S)-[5-(3,3-difluorocyclobutyl)-6-fluoropyridin-2-yl](phenyl)methyl]-1-{2-[5-(difluoromethyl)-1H-1,2,3,4-tetrazol-1-yl]acetyl}-4-fluoropyrrolidine-2-carboxamide] | 14 | > 100000 | 220
O=C(N[C@@H](c1ccccc1)c1ccc(C2CC(F)(F)C2)c(F)n1)[C@@H]1C[C@@H](F)CN1C(=O)Cn1ccc(=O)[nH]c1=O [Compound 514, (2S,4R)-N-[(S)-[5-(3,3-difluorocyclobutyl)-6-fluoropyridin-2-yl](phenyl)methyl]-1-[2-(2,4-dioxo-1,2,3,4-tetrahydropyrimidin-1-yl)acetyl]-4-fluoropyrrolidine-2-carboxamide] | 7 | > 100000 | 770
CCn1c(=O)ccn(CC(=O)N2C[C@H](F)C[C@H]2C(=O)N[C@@H](c2ccccc2)c2ccc(C3CC(F)(F)C3)c(F)n2)c1=O [Compound 515, (2S,4R)-N-[(S)-[5-(3,3-difluorocyclobutyl)-6-fluoropyridin-2-yl](phenyl)methyl]-1-[2-(3-ethyl-2,4-dioxo-l,2,3,4-tetrahydropyrimidin-1-yl)acetyl]-4-fluoropyrrolidine-2-carboxamide] | 4 | > 100000 | 100

Other lines, results leading:

IC50 [1] [nM] | IC50 [2] [nM] | IC50 [3] [nM] | Structure (SMILES)
10 | > 100000 | 170 | Cc1nn(CC(=O)N2C[C@H](F)C[C@H]2C(=O)N[C@@H](c2ccccc2)c2ccc(C3CC(F)(F)C3)c(F)n2)c(=O)o1 [Compound 502, (2S,4R)-N-[(S)-[5-(3,3-difluorocyclobutyl)-6-fluoropyridin-2-yl](phenyl)methyl]-4-fluoro-1-[2-(5-methyl-2-oxo-2,3-dihydro-1,3,4-oxadiazol-3-yl)acetyl]pyrrolidine-2-carboxamide]
8 | > 100000 | 240 | O=C(N[C@@H](c1ccccc1)c1ccc(C2CC(F)(F)C2)c(F)n1)[C@@H]1C[C@@H](F)CN1C(=O)CNC(=O)N1CCC1 [Compound 503, (2S,4R)-1-{2-[(azetidine-1-carbonyl)amino]acetyl}-N-[(S)-[5-(3,3-difluorocyclobutyl)-6-fluoropyridin-2-yl](phenyl)methyl]-4-fluoropyrrolidine-2-carboxamide]
20 | > 100000 | 350 | O=C(N[C@@H](c1ccccc1)c1ccc(C2CC(F)(F)C2)c(F)n1)[C@@H]1C[C@@H](F)CN1C(=O)Cc1ncco1 [Compound 505, (2S,4R)-N-[(S)-[5-(3,3-difluorocyclobutyl)-6-fluoropyridin-2-yl](phenyl)methyl]-4-fluoro-1-[2-(1,3-oxazol-2-yl)acetyl]pyrrolidine-2-carboxamide]
4 | > 100000 | 370 | Cc1cn(CC(=O)N2C[C@H](F)C[C@H]2C(=O)N[C@@H](c2ccccc2)c2ccc(C3CC(F)(F)C3)c(F)n2)c(=O)[nH]c1=O [Compound 506, (2S,4R)-N-[(S)-[5-(3,3-difluorocyclobutyl)-6-fluoropyridin-2-yl](phenyl)methyl]-4-fluoro-1-[2-(5-methyl-2,4-dioxo-1,2,3,4-tetrahydropyrimidin-1-yl)acetyl] pyrrolidine-2-carboxamide]
22 | > 100000 | 260 | CN(C)C(=O)NCC(=O)N1C[C@H](F)C[C@H]1C(=O)N[C@@H](c1ccccc1)c1ccc(C2CC(F)(F)C2)c(F)n1 [Compound 507, (2S,4R)-N-[(S)-[5-(3,3-difluorocyclobutyl)-6-fluoropyridin-2-yl](phenyl)methyl]-1-{2-[(dimethylcarbamoyl)amino]acetyl}-4-fluoropyrrolidine-2-carboxamide]
21 | > 100000 | 310 | O=C(N[C@@H](c1ccccc1)c1ccc(C2CC(F)(F)C2)c(F)n1)[C@@H]1C[C@@H](F)CN1C(=O)Cc1cnn[nH]1 [Compound 508, (2S,4R)-N-[(S)-[5-(3,3-difluorocyclobutyl)-6-fluoropyridin-2-yl](phenyl)methyl]-4-fluoro-1-[2-(1H-1,2,3-triazol-5-yl)acetyl]pyrrolidine-2-carboxamide]
8 | > 100000 | 180 | Cc1cnc(CC(=O)N2C[C@H](F)C[C@H]2C(=O)N[C@@H](c2ccccc2)c2ccc(C3CC(F)(F)C3)c(F)n2)o1 [Compound 509, (2S,4R)-N-[(S)-[5-(3,3-difluorocyclobutyl)-6-fluoropyridin-2-yl](phenyl)methyl]-4-fluoro-1-[2-(5-methyl-1,3-oxazol-2-yl)acetyl]pyrrolidine-2-carboxamide]
12 | > 100000 | 260 | Cc1coc(CC(=O)N2C[C@H](F)C[C@H]2C(=O)N[C@@H](c2ccccc2)c2ccc(C3CC(F)(F)C3)c(F)n2)n1 [Compound 511, (2S,4R)-N-[(S)-[5-(3,3-difluorocyclobutyl)-6-fluoropyridin-2-yl](phenyl)methyl]-4-fluoro-1-[2-(4-methyl-1,3-oxazol-2-yl)acetyl]pyrrolidine-2-carboxamide]
15 | > 100000 | 290 | O=C(N[C@@H](c1ccccc1)c1ccc(C2CC(F)(F)C2)c(F)n1)[C@@H]1C[C@@H](F)CN1C(=O)CNC(=O)N1CC(F)(F)C1 [Compound 512, (2S,4R)-1-{2-[(3,3-difluoroazetidine-1-carbonyl)amino]acetyl}-N-[(S)-[5-(3,3-difluorocyclobutyl)-6-fluoropyridin-2-yl](phenyl)methyl]-4-fluoropyrrolidine-2-carboxamide]
8 | > 100000 | 710 | O=C(N[C@@H](c1ccccc1)c1ccc(C2CC(F)(F)C2)c(F)n1)[C@@H]1C[C@@H](F)CN1C(=O)Cc1ccc(=O)[nH]c1 [Compound 516, (2S,4R)-N-[(S)-[5-(3,3-difluorocyclobutyl)-6-fluoropyridin-2-yl](phenyl)methyl]-4-fluoro-1-[2-(6-oxo-1,6-dihydropyridin-3-yl)acetyl]pyrrolidine-2-carboxamide]
8 | > 100000 | 540 | O=C(N[C@@H](c1ccccc1)c1ccc(C2CC(F)(F)C2)c(F)n1)[C@@H]1C[C@@H](F)CN1C(=O)Cc1ccc[nH]c1=O [Compound 517, (2S,4R)-N-[(S)-[5-(3,3-difluorocyclobutyl)-6-fluoropyridin-2-yl](phenyl)methyl]-4-fluoro-1-[2-(2-oxo-1,2-dihydropyridin-3-yl)acetyl]pyrrolidine-2-carboxamide]
